The text below walks through data of publication PMC4207543 (Journal of Medicinal Chemistry, 2014).

Molecules are shown by their SMILES. In brackets after ≈: the same amount, converted by molar mass. Like-named read-outs stand apart in the source and are kept apart here.

The test system of one test is S. aureus strain UAMS-1. The test can be described thus: microbe, parasite or virus in culture. To be noted: for MIC: Staphylococcus aureus, UAMS1, 16 h, read-out: S. aureus MIC, strain UAMS-1, planktonic cells, MHB, 37 °C, 16 h; for fold reduction in activity compared to 4g: S. aureus MIC. The test is classed as cell-based, Staphylococcus aureus.
For test [1], the target named is S. aureus topoisomerase IV (Staphylococcus aureus, UniProt P0C1S7+P0C1U9). In words: S. aureus topoisomerase IV decatenation assay. The test is classed as biochemical.
S. aureus topoisomerase IV, sequence (P0C1U9 whole entry): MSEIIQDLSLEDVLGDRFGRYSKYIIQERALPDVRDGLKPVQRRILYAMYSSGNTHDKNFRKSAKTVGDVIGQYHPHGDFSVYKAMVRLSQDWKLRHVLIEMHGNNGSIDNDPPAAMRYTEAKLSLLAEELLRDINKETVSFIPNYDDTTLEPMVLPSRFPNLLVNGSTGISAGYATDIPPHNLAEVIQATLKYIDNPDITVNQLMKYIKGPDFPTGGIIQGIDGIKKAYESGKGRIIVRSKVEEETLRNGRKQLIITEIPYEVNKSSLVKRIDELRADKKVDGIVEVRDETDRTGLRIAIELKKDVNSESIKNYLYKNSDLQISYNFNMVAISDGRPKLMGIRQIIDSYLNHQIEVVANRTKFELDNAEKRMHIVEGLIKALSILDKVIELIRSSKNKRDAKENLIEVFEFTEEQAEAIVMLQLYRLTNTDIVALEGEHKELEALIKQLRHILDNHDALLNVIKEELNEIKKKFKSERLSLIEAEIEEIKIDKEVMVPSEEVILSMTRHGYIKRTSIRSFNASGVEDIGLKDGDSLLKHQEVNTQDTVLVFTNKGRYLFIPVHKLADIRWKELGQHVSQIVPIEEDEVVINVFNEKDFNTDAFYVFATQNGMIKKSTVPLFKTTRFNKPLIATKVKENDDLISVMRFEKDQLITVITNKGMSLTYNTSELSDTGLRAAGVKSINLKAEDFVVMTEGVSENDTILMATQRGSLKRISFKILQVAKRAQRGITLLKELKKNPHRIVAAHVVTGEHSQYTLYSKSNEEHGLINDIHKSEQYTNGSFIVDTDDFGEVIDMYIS
S. aureus topoisomerase IV, sequence (P0C1S7 whole entry): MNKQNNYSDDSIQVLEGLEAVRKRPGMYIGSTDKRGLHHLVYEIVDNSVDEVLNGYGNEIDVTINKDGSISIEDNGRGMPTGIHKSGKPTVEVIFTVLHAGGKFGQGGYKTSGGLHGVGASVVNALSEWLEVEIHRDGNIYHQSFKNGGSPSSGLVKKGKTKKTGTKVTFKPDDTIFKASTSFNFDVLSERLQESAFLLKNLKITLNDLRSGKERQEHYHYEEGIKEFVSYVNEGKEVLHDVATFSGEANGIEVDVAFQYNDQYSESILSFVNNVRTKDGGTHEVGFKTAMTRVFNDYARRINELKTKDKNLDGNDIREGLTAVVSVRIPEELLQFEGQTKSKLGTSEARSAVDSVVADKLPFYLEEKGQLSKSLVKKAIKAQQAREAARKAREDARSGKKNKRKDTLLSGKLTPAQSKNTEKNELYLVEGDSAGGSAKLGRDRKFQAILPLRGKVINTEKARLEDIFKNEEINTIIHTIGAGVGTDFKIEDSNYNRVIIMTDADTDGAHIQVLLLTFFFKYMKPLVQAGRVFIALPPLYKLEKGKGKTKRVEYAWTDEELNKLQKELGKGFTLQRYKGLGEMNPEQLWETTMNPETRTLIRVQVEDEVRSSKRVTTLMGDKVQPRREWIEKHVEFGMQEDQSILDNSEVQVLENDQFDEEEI
The subject of another test is S. aureus RNase J2. The test can be described thus: S. aureus RNase J2 activity. To be noted: data not shown. The test is classed as biochemical.
Another test has as its target T1, S. aureus RnpA (Staphylococcus aureus, UniProt P0A0H5).
T1 sequence (P0A0H5 1-117): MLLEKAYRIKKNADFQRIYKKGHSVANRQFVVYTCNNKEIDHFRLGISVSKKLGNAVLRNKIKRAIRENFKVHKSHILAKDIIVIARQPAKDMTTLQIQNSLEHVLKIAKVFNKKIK
In words: S. aureus RnpA activity. The test is classed as biochemical. To be noted: data not shown.

A further test concerns the target S. aureus DNA gyrase (Staphylococcus aureus, UniProt P0A0K8+P20831). The test can be described thus: S. aureus DNA gyrase supercoiling assay. It counts as biochemical. Conditions: tested at 100 μM, gel (Figure 4B).
The subject of test [2] is methicillin-resistant (MRSA), vancomycin-intermediate (VISA), vancomycin-resistant (VRSA) S. aureus, fluoroquinolone resistant strains. The test is classed as cell-based, Staphylococcus aureus. Conditions: toward MRSA, VRSA S. aureus and fluoroquinolone resistant strains.
The mark [3] stands for this setting: strain UAMS-1, compared to the hit 1a.

S. aureus DNA gyrase, sequence (P20831 whole entry): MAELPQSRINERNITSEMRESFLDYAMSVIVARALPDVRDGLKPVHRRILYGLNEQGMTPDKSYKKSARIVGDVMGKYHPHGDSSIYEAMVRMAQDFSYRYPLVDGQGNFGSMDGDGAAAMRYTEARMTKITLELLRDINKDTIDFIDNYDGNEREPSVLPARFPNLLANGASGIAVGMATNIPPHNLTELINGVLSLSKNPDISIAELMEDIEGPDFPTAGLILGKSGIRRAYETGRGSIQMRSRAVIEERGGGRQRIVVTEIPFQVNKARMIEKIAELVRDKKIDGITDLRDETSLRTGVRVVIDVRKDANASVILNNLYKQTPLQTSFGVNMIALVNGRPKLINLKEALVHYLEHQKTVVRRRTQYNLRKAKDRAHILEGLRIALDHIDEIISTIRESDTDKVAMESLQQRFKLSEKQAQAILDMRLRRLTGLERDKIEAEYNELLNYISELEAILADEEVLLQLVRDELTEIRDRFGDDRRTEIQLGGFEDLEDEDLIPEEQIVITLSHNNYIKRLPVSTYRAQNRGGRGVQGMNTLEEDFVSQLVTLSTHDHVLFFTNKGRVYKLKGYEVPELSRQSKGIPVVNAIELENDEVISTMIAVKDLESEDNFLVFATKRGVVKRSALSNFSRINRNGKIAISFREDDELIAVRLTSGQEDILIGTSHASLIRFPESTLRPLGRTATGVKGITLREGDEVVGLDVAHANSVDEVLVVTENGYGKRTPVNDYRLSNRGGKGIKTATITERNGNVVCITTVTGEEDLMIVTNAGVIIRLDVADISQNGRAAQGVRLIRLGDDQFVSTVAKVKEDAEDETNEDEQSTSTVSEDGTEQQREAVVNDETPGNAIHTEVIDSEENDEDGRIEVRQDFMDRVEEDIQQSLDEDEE
S. aureus DNA gyrase, sequence (P0A0K8 whole entry): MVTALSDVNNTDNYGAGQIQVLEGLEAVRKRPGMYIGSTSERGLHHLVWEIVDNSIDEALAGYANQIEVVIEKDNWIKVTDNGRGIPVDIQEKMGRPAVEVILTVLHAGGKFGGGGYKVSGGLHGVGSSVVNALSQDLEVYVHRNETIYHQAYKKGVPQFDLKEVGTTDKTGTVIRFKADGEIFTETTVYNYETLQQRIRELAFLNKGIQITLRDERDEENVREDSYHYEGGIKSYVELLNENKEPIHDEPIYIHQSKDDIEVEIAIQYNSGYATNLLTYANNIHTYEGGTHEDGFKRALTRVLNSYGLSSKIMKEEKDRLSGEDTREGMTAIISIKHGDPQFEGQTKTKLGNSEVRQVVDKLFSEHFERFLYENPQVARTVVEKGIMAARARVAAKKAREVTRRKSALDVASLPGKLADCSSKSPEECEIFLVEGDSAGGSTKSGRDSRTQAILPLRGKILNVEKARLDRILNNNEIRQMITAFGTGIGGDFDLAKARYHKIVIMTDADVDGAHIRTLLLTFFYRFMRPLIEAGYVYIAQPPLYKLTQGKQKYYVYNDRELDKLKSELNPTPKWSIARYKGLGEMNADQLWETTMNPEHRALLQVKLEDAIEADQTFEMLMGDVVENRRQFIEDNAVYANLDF

As for `CC(C)(C)c1ccc([C@H](O)CCCN2CCC(C(O)(c3ccccc3)c3ccccc3)CC2)cc1` [2i, (R)-1-(4-(tert-Butyl)phenyl)-4-(4-(hydroxydiphenylmethyl)piperidin-1-yl)butan-1-ol], in the test with S. aureus strain UAMS-1 (setting [3]), the “S. aureus antimicrobial activity (in words)” value is “no change in activity”.

Regarding `CC(C)(C)c1ccc([C@@H](O)CCCN2CCC(C(O)(c3ccccc3)c3ccccc3)CC2)cc1` [2h, (S)-1-(4-(tert-Butyl)phenyl)-4-(4-(hydroxydiphenylmethyl)piperidin-1-yl)butan-1-ol], the “S. aureus antimicrobial activity (in words)” value with S. aureus strain UAMS-1 (setting [3]) is on record as “no change in activity”.

The term IC50 denotes the point on the concentration scale where inhibition reaches its midpoint. The low end stands for inhibition by little substance, the high end for a need for much substance. `CC1(c2ccc(CCN3CCC(C(O)(c4ccccc4)c4ccccc4)CC3)cc2)COC1` [3o, (1-(4-(3-Methyloxetan-3-yl)phenethyl)piperidin-4-yl)diphenylmethanol] yielded a half-maximal inhibitory concentration (IC50) in test [1] above 333 µM.

Consider `CC(C)(C)c1ccc(C(N)CCCN2CCC(C(O)(c3ccccc3)c3ccccc3)CC2)cc1` (stereo not drawn) [2g, (1-(4-Amino-4-(4-(tert-butyl)phenyl)butyl)piperidin-4-yl)diphenylmethanol], for which the MIC in the test with S. aureus strain UAMS-1 was 16 to 32 µg/mL (≈ 34 to 68 µM). For the same compound, in the test with S. aureus strain UAMS-1 (setting [3]), the “S. aureus antimicrobial activity (in words)” value was “no change in activity”.

Regarding `OC(c1ccccc1)(c1ccccc1)C1CCN(Cc2ccc(-c3cccs3)cc2)CC1` [4gg, (1-(4-(Thiophen-2-yl)benzyl)piperidin-4-yl)diphenylmethanol], in the test on S. aureus strain UAMS-1, the “fold reduction in activity compared to 4g” value (shortened to “fold reduction in activity”) is 4– 8 fold.

For `CC(C)(C)c1ccc(C(O)CCCN2CCC(C(O)(c3ccccc3)c3ccccc3)CC2)cc1` (stereo not drawn) [1a, 1-(4-(tert-Butyl)phenyl)-4-(4-(hydroxydiphenylmethyl)piperidin-1-yl)butan-1-ol], in the test on S. aureus RNase J2, the “effect on activity of S. aureus RNase J2” value is “did not appear to affect the activity”. Moreover, the “effect on activity of S. aureus RnpA” value on S. aureus RnpA was “did not appear to affect the activity”. Also, the “topoisomerase IV inhibitory activity (in words)” value in test [1] (dose–response gel (Figure 5A)) is listed as “moderate”.

As for `OC(c1ccccc1)(c1ccccc1)C1CCN(CCc2ccc(Br)cc2)CC1` [3e, (1-(4-Bromophenethyl)piperidin-4-yl)diphenylmethanol], the MIC with S. aureus strain UAMS-1 fell in the range of 16 to 32 µg/mL (≈ 35.5 to 71 µM).

With `CC(C)(C(=O)O)c1ccc(C(O)CCCN2CCC(C(O)(c3ccccc3)c3ccccc3)CC2)cc1` (stereo not drawn) [1p, 2-(4-(1-Hydroxy-4-(4-(hydroxydiphenylmethyl)piperidin-1-yl)butyl)phenyl)-2-methyl propanoic Acid, reference compound], the “S. aureus antimicrobial activity (in words)” value in the test on S. aureus strain UAMS-1 is recorded as “loss of antimicrobial activity”.

Consider `O=C(O)c1ccc(C(O)CCCN2CCC(C(O)(c3ccccc3)c3ccccc3)CC2)cc1` (stereo not drawn) [1m, 4-(1-Hydroxy-4-(4-(hydroxydiphenylmethyl)piperidin-1-yl)butyl)benzoic Acid], for which, in the test with S. aureus strain UAMS-1 (setting [3]), the “S. aureus antimicrobial activity (in words)” value is given as “loss of antimicrobial activity”.

Turning to `COC(=O)c1ccc(C(O)CCCN2CCC(C(O)(c3ccccc3)c3ccccc3)CC2)cc1` (stereo not drawn) [1i, Methyl 4-(1-Hydroxy-4-(4-(hydroxydiphenylmethyl)piperidin-1-yl)butyl)benzoate], the MIC in the test with S. aureus strain UAMS-1 is above 256 µg/mL. Moreover, in the test with S. aureus strain UAMS-1 (setting [3]), the “S. aureus antimicrobial activity (in words)” value was “loss of antimicrobial activity”. The compound further yielded an IC50 in test [1] above 333 µM.

The compound `CC(C)(C)c1ccc(C(O)CCCN2CCC(Cc3ccccc3)CC2)cc1` (stereo not drawn) [5b, 4-(4-Benzylpiperidin-1-yl)-1-(4-(tert-butyl)phenyl)butan-1-ol] returned an IC50 in test [1] above 333 µM.

In the case of `OC(c1ccccc1)(c1ccccc1)C1CCN(CCc2ccc(Cl)cc2)CC1` [3d, (1-(4-Chlorophenethyl)piperidin-4-yl)diphenylmethanol], the MIC with S. aureus strain UAMS-1 fell in the range of 16 to 32 µg/mL (≈ 39.4 to 78.8 µM).

As for `OC(c1ccccc1)(c1ccccc1)C1CCN(Cc2ccc(-c3ccsc3)cc2)CC1` [4ff], the “fold reduction in activity” value in the test on S. aureus strain UAMS-1 is 4– 8 fold.

`CC(C)(C)c1ccc(C(O)CCCN2CCC(C(O)c3ccccc3)CC2)cc1` (stereo not drawn) [5a, 1-(4-(tert-Butyl)phenyl)-4-(4-(hydroxy(phenyl)methyl)piperidin-1-yl)butan-1-ol]: in test [1], the IC50 is above 333 µM.

`CC(C)(C)c1ccc(C(O)CCCN2CCC(C(c3ccccc3)c3ccccc3)CC2)cc1` (stereo not drawn) [5e, 4-(4-Benzhydrylpiperidin-1-yl)-1-(4-(tert-butyl)phenyl)butan-1-ol]: the “S. aureus antimicrobial activity (in words)” value in the test with S. aureus strain UAMS-1 (setting [3]) is on record as “tolerated”.

For the compound `OC(c1ccccc1)(c1ccccc1)C1CCN(CCc2ccc(-c3cccnc3)cc2)CC1` [3n, (1-(4-(Pyridin-3-yl)phenethyl)piperidin-4-yl)diphenylmethanol], the MIC with S. aureus strain UAMS-1 is 16 to 32 µg/mL (≈ 35.7 to 71.3 µM).

On to `O=C(O)c1cn(C2CC2)c2cc(N3CCNCC3)c(F)cc2c1=O` [ciprofloxacin, reference compound], for which, on S. aureus DNA gyrase, the “inhibition of S. aureus DNA gyrase supercoiling activity in comparison to terfenadine” value (from here on “inhibition”) was “improved inhibition”.

As to `OC(c1ccccc1)(c1ccccc1)C1CCN(Cc2ccc(-c3ccccc3)cc2)CC1` [4g, (1-([1,1′-Biphenyl]-4-ylmethyl)piperidin-4-yl)diphenylmethanol], at S. aureus DNA gyrase, the “inhibition” value is “improved inhibition”.

Consider `COc1ccc(C(O)CCCN2CCC(C(O)(c3ccccc3)c3ccccc3)CC2)cc1` (stereo not drawn) [1h, 1-(4-Methoxyphenyl)-4-(4-(hydroxydiphenylmethyl)piperidin-1-yl)butan-1-ol], for which the “S. aureus antimicrobial activity (in words)” value in the test on S. aureus strain UAMS-1 (setting [3]) was “loss of antimicrobial activity”.

In the case of `OC(c1ccccc1)(c1ccccc1)C1CCN(Cc2ccc(-c3ccoc3)cc2)CC1` [4hh, (1-(4-(Furan-3-yl)benzyl)piperidin-4-yl)diphenylmethanol], in the test with S. aureus strain UAMS-1, the “fold reduction in activity” value is on record as 4– 8 fold.

`COc1ccc(CCN2CCC(C(O)(c3ccccc3)c3ccccc3)CC2)cc1` [3g, (1-(4-Methoxyphenethyl)piperidin-4-yl)diphenylmethanol] registered an IC50 in test [1] above 333 µM.

For the compound `OC(c1ccccc1)(c1ccccc1)C1CCN(Cc2ccc(-c3ccco3)cc2)CC1` [4ii, (1-(4-(Furan-2-yl)benzyl)piperidin-4-yl)diphenylmethanol], the “fold reduction in activity” value in the test on S. aureus strain UAMS-1 is recorded as 4– 8 fold.

The compound `OC(c1ccccc1)(c1ccccc1)C1CCN(CCc2ccc(F)cc2)CC1` [3c, (1-(4-Fluorophenethyl)piperidin-4-yl)diphenylmethanol] displayed a 50% inhibitory concentration (IC50) in test [1] above 333 µM.

In the case of `OC(c1ccccc1)(c1ccccc1)C1CCN(CCCOc2ccc(-c3ccccc3)cc2)CC1` [compound 6, (1-(3-([1,1′-Biphenyl]-4-yloxy)propyl)piperidin-4-yl)diphenylmethanol], in test [2], the MIC result is “approximately 2 μg/mL”. Moreover, at S. aureus DNA gyrase, the “inhibition” value was “improved inhibition”.

As for `COC(=O)C(C)(C)c1ccc(C(O)CCCN2CCC(C(O)(c3ccccc3)c3ccccc3)CC2)cc1` (stereo not drawn) [1o, Methyl 2-(4-(1-Hydroxy-4-(4-(hydroxydiphenylmethyl)piperidin-1-yl)butyl)phenyl)-2-methylpropanoate], in the test with S. aureus strain UAMS-1 (setting [3]), the “S. aureus antimicrobial activity (in words)” value is listed as “loss of antimicrobial activity”.

As to `CC(C)(C)c1ccc(CCN2CCC(C(O)(c3ccccc3)c3ccccc3)CC2)cn1` [3h, (1-(2-(6-(tert-Butyl)pyridin-3-yl)ethyl)piperidin-4-yl)diphenylmethanol], the IC50 in test [1] is above 333 µM.

Take `CN(C)c1ccc(CCN2CCC(C(O)(c3ccccc3)c3ccccc3)CC2)cc1` [3k, (1-(4-(Dimethylamino)phenethyl)piperidin-4-yl)diphenylmethanol]: the IC50 in test [1] was above 333 µM.
